One experiment deals with T1, ItypOR49 (Ips typographus, UniProt A0A7L8XYT4).
T1 construct: gene OR49; full-length, N-terminal V5 tag; with ItypOrco
T1 sequence (A0A7L8XYT4 1-406): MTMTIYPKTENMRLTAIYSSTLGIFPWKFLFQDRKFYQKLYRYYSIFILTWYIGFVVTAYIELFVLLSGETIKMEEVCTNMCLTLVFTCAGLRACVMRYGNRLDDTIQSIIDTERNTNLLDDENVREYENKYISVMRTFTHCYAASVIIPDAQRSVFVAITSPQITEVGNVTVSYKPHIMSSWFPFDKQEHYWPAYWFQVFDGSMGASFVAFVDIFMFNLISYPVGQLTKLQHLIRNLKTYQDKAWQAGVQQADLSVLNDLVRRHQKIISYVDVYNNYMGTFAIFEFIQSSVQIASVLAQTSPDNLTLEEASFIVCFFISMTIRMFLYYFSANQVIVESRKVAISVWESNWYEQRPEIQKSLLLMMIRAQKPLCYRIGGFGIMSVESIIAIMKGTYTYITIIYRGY
T1 sequence (A0A7L8XYY7 1-480 partner): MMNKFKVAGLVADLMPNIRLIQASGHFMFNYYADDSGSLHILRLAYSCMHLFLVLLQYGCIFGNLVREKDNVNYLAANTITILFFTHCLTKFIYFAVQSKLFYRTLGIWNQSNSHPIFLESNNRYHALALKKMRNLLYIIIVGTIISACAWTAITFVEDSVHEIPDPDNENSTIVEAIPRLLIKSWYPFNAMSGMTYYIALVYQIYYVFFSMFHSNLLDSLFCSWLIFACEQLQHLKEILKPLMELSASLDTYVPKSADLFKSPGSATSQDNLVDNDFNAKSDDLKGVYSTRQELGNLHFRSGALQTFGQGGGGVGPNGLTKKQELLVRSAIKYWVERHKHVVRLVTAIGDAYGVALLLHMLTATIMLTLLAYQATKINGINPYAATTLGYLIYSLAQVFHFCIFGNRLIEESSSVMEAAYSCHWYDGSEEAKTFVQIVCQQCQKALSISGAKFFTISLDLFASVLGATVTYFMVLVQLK
The experiment can be described thus: calcium fluorescence dose-response in TREx/HEK293 cells. In kind it is cell-based.

The target of experiment [1] is T2, ItypOR46 (Ips typographus, UniProt A0A7L8XZ66).
T2 construct: with ItypOrco
T2 sequence (A0A7L8XZ66 1-408): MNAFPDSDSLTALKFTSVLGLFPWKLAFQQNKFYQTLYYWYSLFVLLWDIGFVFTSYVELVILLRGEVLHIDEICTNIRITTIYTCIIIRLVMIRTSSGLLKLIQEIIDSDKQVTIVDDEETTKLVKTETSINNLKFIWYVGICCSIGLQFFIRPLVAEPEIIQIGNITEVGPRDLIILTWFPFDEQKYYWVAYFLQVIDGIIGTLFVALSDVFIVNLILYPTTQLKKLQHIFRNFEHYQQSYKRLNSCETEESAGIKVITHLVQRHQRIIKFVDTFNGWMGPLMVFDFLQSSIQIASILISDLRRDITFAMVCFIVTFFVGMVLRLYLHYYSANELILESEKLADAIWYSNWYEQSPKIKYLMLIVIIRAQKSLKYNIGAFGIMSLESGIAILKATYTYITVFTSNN
The experiment can be described thus: two-electrode voltage clamp dose-response in Xenopus oocytes (secondary response; not significant in HEK cells). In kind it is cell-based. A general note: In two-electrode clamp one electrode senses voltage and the other passes current.

In another experiment the target is T3, ItypOrco (Ips typographus, UniProt A0A7L8XYY7).
T3 construct: full-length, N-terminal c-Myc tag
T3 sequence (A0A7L8XYY7 1-480): T1 sequence (A0A7L8XYY7 1-480 partner)
As to the kind of experiment: calcium fluorescence dose-response in TREx/HEK293 cells expressing only ItypOrco. The format is cell-based.

Experiment [2] has as its system T4, ItypOR46.
T4 construct: gene OR46; full-length, N-terminal V5 tag; with ItypOrco
The experiment can be described thus: calcium fluorescence assay in TREx/HEK293 cells; also Xenopus oocyte two-electrode voltage clamp; site-directed mutagenesis. In kind it is cell-based, Ips typographus.

Molecules are shown by their SMILES.

Usually EC50 stands for the midpoint of the concentration-response curve.

As to `C=CC(=C)C[C@@H](O)C=C(C)C` [(R)-(−)-ipsdienol], the EC50 at ItypOR49 worked out at 9.47 µM. Moreover, the “two-electrode voltage clamp dose-response in Xenopus oocytes (secondary response)” value at ItypOR46 [1] was “secondary response of ItypOR46 to racemic ipsdienol is mainly triggered by the (R)-(−)-enantiomer”.
Regarding `CCc1ccc(NC(=O)CSc2nnc(-c3cccnc3)n2CC)cc1` [VUAA1], the EC50 at ItypOrco stood at 24.5 µM.
As for `C=CC(=C)C[C@@H](O)CC(C)C` [(S)-(−)-ipsenol], in the experiment on ItypOR46 [2], the EC50 turned out to be 1.98 µM.

(Values after article PMC7836466, “Putative ligand binding sites of two functionally characterized bark beetle odorant receptors” (BMC Biology, 2021).)
